# Data from ChEMBL document CHEMBL3885881, “DrugMatrix”.
# Species on record: Rattus norvegicus
# Assay: DrugMatrix - Regimen: Daily Repeat
# Type: toxicity, organism-based, Sprague-Dawley
# Set-up: regimen Daily Repeat, gender Male, age 6-8 weeks
# Conditions: in vivo, po, route oral GAVAGE, […]; for TOTAL PROTEIN / ALANINE AMINOTRANSFERASE / ALBUMIN / ALKALINE PHOSPHATASE / ASPARTATE AMINOTRANSFERASE / BLOOD UREA NITROGEN / CARBON DIOXIDE / CHLORIDE / CHOLESTEROL / CREATINE PHOSPHOKINASE / CREATININE / GLUCOSE / LACTATE DEHYDROGENASE / LIPASE / PHOSPHORUS / POTASSIUM / SODIUM / TOTAL BILIRUBIN: tissue Plasma; for ABSOLUTE BASOPHIL / ABSOLUTE EOSINOPHIL / ABSOLUTE LYMPHOCYTE / ABSOLUTE MONOCYTE / ABSOLUTE SEGMENTED NEUTROPHIL / BASOPHIL / EOSINOPHIL / ERYTHROCYTE COUNT / HEMATOCRIT / HEMOGLOBIN / LEUKOCYTE COUNT / LYMPHOCYTE / MEAN CORPUSCULAR HEMOGLOBIN / MEAN CORPUSCULAR HEMOGLOBIN CONCENTRATION / MEAN CORPUSCULAR VOLUME / MONOCYTE / NEUTROPHIL / NUCLEATED RED BLOOD CELLS / PLATELET COUNT: tissue Blood
# [1] = 40 mg/kg, 120 h, dose level Low, time 5 day
# [2] = 90 mg/kg, 72 h, dose level High, time 3 day
# [3] = 90 mg/kg, 120 h, dose level High, time 5 day
compound,measurement,setting,value
CN(C)CCCC1(c2ccc(F)cc2)OCc2cc(C#N)ccc21 (stereo not given) [CITALOPRAM],TOTAL PROTEIN,"40 mg/kg, 72 h, dose level Low, time 3 day",4.8 G/DL
same,ABSOLUTE BASOPHIL,[1],0 CELLS/uL
same,ABSOLUTE EOSINOPHIL,[1],0 CELLS/uL
same,ABSOLUTE LYMPHOCYTE,[1],8782.67 CELLS/uL
same,ABSOLUTE MONOCYTE,[1],193 CELLS/uL
same,ABSOLUTE SEGMENTED NEUTROPHIL,[1],424.33 CELLS/uL
same,BASOPHIL,[1],0%
same,EOSINOPHIL,[1],0%
same,ERYTHROCYTE COUNT,[1],5.43 x10E6/uL
same,HEMATOCRIT,[1],34.67%
same,HEMOGLOBIN,[1],13.13 G/DL
same,LEUKOCYTE COUNT,[1],9.4 x10E3/uL
same,LYMPHOCYTE,[1],93.67%
same,MEAN CORPUSCULAR HEMOGLOBIN,[1],24.23 pg
same,MEAN CORPUSCULAR HEMOGLOBIN CONCENTRATION,[1],37.87 G/DL
same,MEAN CORPUSCULAR VOLUME,[1],63.9 fL
same,MONOCYTE,[1],2%
same,NEUTROPHIL,[1],4.33%
same,NUCLEATED RED BLOOD CELLS,[1],0 /100WBC
same,PLATELET COUNT,[1],1141.33 x10E3/uL
same,ALANINE AMINOTRANSFERASE,[1],63 u/L
same,ALBUMIN,[1],3.87 G/DL
same,ALKALINE PHOSPHATASE,[1],433.67 u/L
same,ASPARTATE AMINOTRANSFERASE,[1],95 u/L
same,BLOOD UREA NITROGEN,[1],10.67 mg/dL
same,CARBON DIOXIDE,[1],31.33 mmol/L
same,CHLORIDE,[1],100.67 MEQ/L
same,CHOLESTEROL,[1],73 mg/dL
same,CREATINE PHOSPHOKINASE,[1],389.67 u/L
same,CREATININE,[1],0.14 mg/dL
same,GLUCOSE,[1],160 mg/dL
same,LACTATE DEHYDROGENASE,[1],173.67 u/L
same,LIPASE,[1],10.67 u/L
same,PHOSPHORUS,[1],10.57 mg/dL
same,POTASSIUM,[1],5.68 MEQ/L
same,SODIUM,[1],145.67 MEQ/L
same,TOTAL BILIRUBIN,[1],0.1 mg/dL
same,TOTAL PROTEIN,[1],5.87 G/DL
same,ABSOLUTE BASOPHIL,[2],0 CELLS/uL
same,ABSOLUTE EOSINOPHIL,[2],0 CELLS/uL
same,ABSOLUTE LYMPHOCYTE,[2],13332.67 CELLS/uL
same,ABSOLUTE MONOCYTE,[2],32 CELLS/uL
same,ABSOLUTE SEGMENTED NEUTROPHIL,[2],868.67 CELLS/uL
same,BASOPHIL,[2],0%
same,EOSINOPHIL,[2],0%
same,ERYTHROCYTE COUNT,[2],5.39 x10E6/uL
same,HEMATOCRIT,[2],34.6%
same,HEMOGLOBIN,[2],13.63 G/DL
same,LEUKOCYTE COUNT,[2],14.23 x10E3/uL
same,LYMPHOCYTE,[2],93.67%
same,MEAN CORPUSCULAR HEMOGLOBIN,[2],25.3 pg
same,MEAN CORPUSCULAR HEMOGLOBIN CONCENTRATION,[2],39.4 G/DL
same,MEAN CORPUSCULAR VOLUME,[2],64.2 fL
same,MONOCYTE,[2],0.33%
same,NEUTROPHIL,[2],6%
same,NUCLEATED RED BLOOD CELLS,[2],0 /100WBC
same,PLATELET COUNT,[2],1096.33 x10E3/uL
same,ALANINE AMINOTRANSFERASE,[2],59.67 u/L
same,ALBUMIN,[2],3.87 G/DL
same,ALKALINE PHOSPHATASE,[2],376.33 u/L
same,ASPARTATE AMINOTRANSFERASE,[2],89 u/L
same,BLOOD UREA NITROGEN,[2],9.33 mg/dL
same,CARBON DIOXIDE,[2],26.67 mmol/L
same,CHLORIDE,[2],102.5 MEQ/L
same,CHOLESTEROL,[2],65.67 mg/dL
same,CREATINE PHOSPHOKINASE,[2],142.33 u/L
same,CREATININE,[2],0.11 mg/dL
same,GLUCOSE,[2],156 mg/dL
same,LACTATE DEHYDROGENASE,[2],214.33 u/L
same,PHOSPHORUS,[2],10.6 mg/dL
same,POTASSIUM,[2],6.1 MEQ/L
same,SODIUM,[2],145.75 MEQ/L
same,TOTAL BILIRUBIN,[2],0.2 mg/dL
same,TOTAL PROTEIN,[2],5.5 G/DL
same,ABSOLUTE BASOPHIL,[3],0 CELLS/uL
same,ABSOLUTE EOSINOPHIL,[3],0 CELLS/uL
same,ABSOLUTE LYMPHOCYTE,[3],14553.33 CELLS/uL
same,ABSOLUTE MONOCYTE,[3],322.67 CELLS/uL
same,ABSOLUTE SEGMENTED NEUTROPHIL,[3],1290.67 CELLS/uL
same,BASOPHIL,[3],0%
same,EOSINOPHIL,[3],0%
same,ERYTHROCYTE COUNT,[3],5.96 x10E6/uL
same,HEMATOCRIT,[3],37.47%
same,HEMOGLOBIN,[3],14.47 G/DL
same,LEUKOCYTE COUNT,[3],16.17 x10E3/uL
same,LYMPHOCYTE,[3],90.67%
same,MEAN CORPUSCULAR HEMOGLOBIN,[3],24.33 pg
same,MEAN CORPUSCULAR HEMOGLOBIN CONCENTRATION,[3],38.67 G/DL
same,MEAN CORPUSCULAR VOLUME,[3],62.9 fL
same,MONOCYTE,[3],2%
same,NEUTROPHIL,[3],7.33%
same,NUCLEATED RED BLOOD CELLS,[3],0 /100WBC
same,PLATELET COUNT,[3],1137 x10E3/uL
same,ALANINE AMINOTRANSFERASE,[3],40.33 u/L
same,ALBUMIN,[3],4 G/DL
same,ALKALINE PHOSPHATASE,[3],365 u/L
same,ASPARTATE AMINOTRANSFERASE,[3],81.67 u/L
same,CARBON DIOXIDE,[3],28.67 mmol/L
same,CHLORIDE,[3],100 MEQ/L
same,CHOLESTEROL,[3],70.33 mg/dL
same,CREATINE PHOSPHOKINASE,[3],309.67 u/L
same,CREATININE,[3],0.14 mg/dL
same,GLUCOSE,[3],179.33 mg/dL
same,LACTATE DEHYDROGENASE,[3],263 u/L
same,LIPASE,[3],10.67 u/L
same,PHOSPHORUS,[3],11.03 mg/dL
same,POTASSIUM,[3],5.22 MEQ/L
same,SODIUM,[3],145.33 MEQ/L
same,TOTAL BILIRUBIN,[3],0.13 mg/dL
same,TOTAL PROTEIN,[3],6.03 G/DL
